Experimental data as given in ChEMBL document CHEMBL1148006, “Benzimidazo[1,2-c][1,2,3]thiadiazole-7-sulfonamides as inhibitors of carbonic anhydrase” (Bioorg Med Chem Lett, 2007).

These compounds were tested against Carbonic anhydrase 2 (Bos taurus, UniProt P00921) (assay: Binding affinity to bovine CA2 by typical isothermal titration calorimetry).
Chain of Carbonic anhydrase 2 (P00921 whole entry): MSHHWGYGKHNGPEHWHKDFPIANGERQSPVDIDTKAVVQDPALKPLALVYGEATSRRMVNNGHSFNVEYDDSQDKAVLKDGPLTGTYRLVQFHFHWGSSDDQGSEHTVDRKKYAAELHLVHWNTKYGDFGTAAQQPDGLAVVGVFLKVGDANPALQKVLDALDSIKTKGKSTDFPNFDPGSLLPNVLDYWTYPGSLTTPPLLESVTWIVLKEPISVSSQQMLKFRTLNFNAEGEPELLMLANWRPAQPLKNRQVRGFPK

Compound	Kd [nM]
NS(=O)(=O)c1ccc2nc3n(c2c1)N=S=C3N1CCOCC1	38
NS(=O)(=O)c1ccc2nc3n(c2c1)N=S=C3Sc1ccccc1	285
CSC1=S=Nn2c1nc1ccc(S(N)(=O)=O)cc12	322

The remaining compounds from weak to strong by Kd, led by results:

Kd [nM]	Compound
500	CS(=O)(=O)C1=S=Nn2c1nc1ccc(S(N)(=O)=O)cc12
391	CN1CCN(C2=S=Nn3c2nc2ccc(S(N)(=O)=O)cc23)CC1
286	NS(=O)(=O)c1ccc2nc3n(c2c1)N=S=C3
141	NS(=O)(=O)c1ccc2nc3n(c2c1)N=S=C3Cl
